# From PubChem BioAssay AID1845209 (Molecular Pharmacology Branch, DTP, NCI, 2023)
# Test system: NCI-H211 tumor spheroids, viability percent test/control
# Assay: Anticancer human tumor NCI-H211 cell line growth inhibition;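 further: spheroids exposed to agents for seven days before readout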
# Details: spheroids with HUVEC and MSC; for IC50: curve of first compound; for viability, T/C: stronger effect = lower value
# How it was run: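 Complex tumor spheroids combined malignant cells with endothelial cells and mesenchymal stem cells. DNA-damaging drugs and DNA repair inhibitors were tested alone and in combination, at half-log dilutions down from clinical Cmax (top 10 microM if Cmax unknown), 0.25% DMSO final.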
smiles,measurement,setting,value
Cn1ncnc1[C@H]1c2n[nH]c(=O)c3cc(F)cc(c23)N[C@@H]1c1ccc(F)cc1 + Cn1nnc2c(C(N)=O)ncn2c1=O,IC50,second compound 1 µM,< 9.49 nM
same,IC50,second compound 3.16 µM,< 9.49 nM
same,IC50,second compound 10 µM,< 9.49 nM
same,IC50,second compound 31.6 µM,< 9.49 nM
same,IC50,second compound 100 µM,< 9.49 nM
same,"viability, T/C","second compound 1 µM, first compound 0.00949 µM",3.46%
same,"viability, T/C","second compound 1 µM, first compound 0.03 µM",3.69%
same,"viability, T/C","second compound 1 µM, first compound 0.0949 µM",2.71%
same,"viability, T/C","second compound 1 µM, first compound 0.3 µM",3.04%
same,"viability, T/C","second compound 1 µM, first compound 0.949 µM",3.81%
same,"viability, T/C","second compound 1 µM, first compound 3 µM",3.16%
same,"viability, T/C","second compound 3.16 µM, first compound 0.00949 µM",3.37%
same,"viability, T/C","second compound 3.16 µM, first compound 0.03 µM",3.4%
same,"viability, T/C","second compound 3.16 µM, first compound 0.0949 µM",3.93%
same,"viability, T/C","second compound 3.16 µM, first compound 0.3 µM",3.87%
same,"viability, T/C","second compound 3.16 µM, first compound 0.949 µM",3.65%
same,"viability, T/C","second compound 3.16 µM, first compound 3 µM",3.16%
same,"viability, T/C","second compound 10 µM, first compound 0.00949 µM",3.37%
same,"viability, T/C","second compound 10 µM, first compound 0.03 µM",3.82%
same,"viability, T/C","second compound 10 µM, first compound 0.0949 µM",3.49%
same,"viability, T/C","second compound 10 µM, first compound 0.3 µM",3.08%
same,"viability, T/C","second compound 10 µM, first compound 0.949 µM",3.95%
same,"viability, T/C","second compound 10 µM, first compound 3 µM",3.46%
same,"viability, T/C","second compound 31.6 µM, first compound 0.00949 µM",3.2%
same,"viability, T/C","second compound 31.6 µM, first compound 0.03 µM",3.45%
same,"viability, T/C","second compound 31.6 µM, first compound 0.0949 µM",3.47%
same,"viability, T/C","second compound 31.6 µM, first compound 0.3 µM",3.72%
same,"viability, T/C","second compound 31.6 µM, first compound 0.949 µM",3.28%
same,"viability, T/C","second compound 31.6 µM, first compound 3 µM",3.57%
same,"viability, T/C","second compound 100 µM, first compound 0.00949 µM",2.87%
same,"viability, T/C","second compound 100 µM, first compound 0.03 µM",3.97%
same,"viability, T/C","second compound 100 µM, first compound 0.0949 µM",3.4%
same,"viability, T/C","second compound 100 µM, first compound 0.3 µM",3.21%
same,"viability, T/C","second compound 100 µM, first compound 0.949 µM",3.43%
same,"viability, T/C","second compound 100 µM, first compound 3 µM",3.17%
COc1ccc([C@@H](O)c2cc(-c3ncnc4cc(N5CCOCC5)ccc34)c(F)cc2Cl)nn1 + CC[C@@]1(O)C(=O)OCc2c1cc1n(c2=O)Cc2cc3c(CN(C)C)c(O)ccc3nc2-1,IC50,second compound 0.003 µM,3600 nM
same,IC50,second compound 0.00949 µM,< 31.6 nM
same,IC50,second compound 0.03 µM,< 31.6 nM
same,IC50,second compound 0.0949 µM,< 31.6 nM
same,IC50,second compound 0.3 µM,< 31.6 nM
same,"viability, T/C","second compound 0.003 µM, first compound 0.0316 µM",112%
same,"viability, T/C","second compound 0.003 µM, first compound 0.1 µM",109%
same,"viability, T/C","second compound 0.003 µM, first compound 0.316 µM",109%
same,"viability, T/C","second compound 0.003 µM, first compound 1 µM",80.8%
same,"viability, T/C","second compound 0.003 µM, first compound 3.16 µM",57.8%
same,"viability, T/C","second compound 0.003 µM, first compound 10 µM",5.72%
same,"viability, T/C","second compound 0.00949 µM, first compound 0.0316 µM",18.5%
same,"viability, T/C","second compound 0.00949 µM, first compound 0.1 µM",19%
same,"viability, T/C","second compound 0.00949 µM, first compound 0.316 µM",34.5%
same,"viability, T/C","second compound 0.00949 µM, first compound 1 µM",10.9%
same,"viability, T/C","second compound 0.00949 µM, first compound 3.16 µM",4.32%
same,"viability, T/C","second compound 0.00949 µM, first compound 10 µM",1.55%
same,"viability, T/C","second compound 0.03 µM, first compound 0.0316 µM",0.99%
same,"viability, T/C","second compound 0.03 µM, first compound 0.1 µM",1.23%
same,"viability, T/C","second compound 0.03 µM, first compound 0.316 µM",0.9%
same,"viability, T/C","second compound 0.03 µM, first compound 1 µM",0.66%
same,"viability, T/C","second compound 0.03 µM, first compound 3.16 µM",0.4%
same,"viability, T/C","second compound 0.03 µM, first compound 10 µM",0.33%
same,"viability, T/C","second compound 0.0949 µM, first compound 0.0316 µM",0.86%
same,"viability, T/C","second compound 0.0949 µM, first compound 0.1 µM",0.83%
same,"viability, T/C","second compound 0.0949 µM, first compound 0.316 µM",0.77%
same,"viability, T/C","second compound 0.0949 µM, first compound 1 µM",1.43%
same,"viability, T/C","second compound 0.0949 µM, first compound 3.16 µM",0.37%
same,"viability, T/C","second compound 0.0949 µM, first compound 10 µM",0.32%
same,"viability, T/C","second compound 0.3 µM, first compound 0.0316 µM",0.92%
same,"viability, T/C","second compound 0.3 µM, first compound 0.1 µM",1.06%
same,"viability, T/C","second compound 0.3 µM, first compound 0.316 µM",0.96%
same,"viability, T/C","second compound 0.3 µM, first compound 1 µM",0.94%
same,"viability, T/C","second compound 0.3 µM, first compound 3.16 µM",1.01%
same,"viability, T/C","second compound 0.3 µM, first compound 10 µM",0.26%
